Structures are written as SMILES. Where a name gives a salt, the structure may show the parent alone. A value given as a limit tells only on which side of the number the result lay.

Inhibition and IC50 data for two molecules are collected here from patent US5750567A, “Farnesyl transferase inhibitors, preparation thereof and pharmaceutical compositions containing same” (Phone-Poulenc Rorer SA., priority 1995, dated 1998).

Assay [1] deals with farnesylation of the Ras protein in THAC line (CCL 39 cells transfected with activated Ha-Ras). Description: activity against cells: inhibition of farnesylation of the Ras protein in THAC cells (Western blot). It is filed as cell-based. The note with it: CCL39, 24 hours at 37° C. The method, then:
The activity against cells can be determined in the following way:
The cell line is the THAC line (CCL 39 cells transfected with activated Ha-Ras) according to K. Seuwen et al., EMBO J., 7(1) 161-168 (1988). The cells are cultured in Petri dishes with a diameter of 6 cm containing a DMEM medium, 5% foetal calf serum and 1% G418.
After culturing for 24 hours, the culture medium is changed (with or without the serum).and the product to be studied is added in solution in dimethylformamide (DMF), in the presence or in the absence of DTT (final concentrations of 0.5% in DMF and 0.1 mM in DTT). After culturing for 24 hours at 37° C., the cells are lysed in 1 cm^3 of lysis buffer (20 mM Tris, HCl, 1% Triton X114, 5 mM MgCl2, 7 mM DTT, 150 mM NaCl, pH=7.4). The lysates are clarified by centrifuging at 4000 revolutions/minute for 10 minutes. […] The radioactivity of the bands corresponding to farnesylated Ras and to non-farnesylated Ras makes it possible to determine the percentage of inhibition of farnesylation of the Ras protein.

The target in assay [2] is T1, human farnesyl transferase (Homo sapiens, UniProt P49354+P49356).
T1 construct: human farnesyl transferase purified from THP1 cell cultures; endogenous in cells; host or cells: THP1 cells (enzyme purified from the cultures)
Description: inhibition of farnesyl transferase (transfer of [3H]farnesyl from [3H]FPP to p21 H-Ras). It is filed as biochemical. The following applies: p21 H-Ras substrate, 20 minutes at 37° C.; 9 concentrations; read-out: Inhibitory activity IC50. The method, then:
Farnesyl transferase activity is determined by the quantity of [^3 H]farnesyl transferred from [^3 H]farnesyl pyrophosphate [[^3 H]FPP) to the p21 H-Ras protein. The standard reaction mixture is composed, for a final volume of 60 μl, of 50 mM Tris-HCl, 5 mM MgCl2, 5 mM dithiotreitol, 0.2% octyl β-D-glucopyranoside, 200 picomol p21 H-ras, 4.5 picomol [^3 H]FPP (activity 61000 dpm/picomol).
Reaction is initiated by adding approximately 5 ng of human farnesyl transferase purified from THP1 cell cultures. After incubation for 20 minutes at 37° C. in a microtitration plate containing 96 1-cm^3 wells per plate (Titer Plate®, Beckman), the reaction is stopped by adding 0.4 cm^3 of 0.1% SDS in methanol at 0° C. The mixture is then treated with 0.4 cm^3 of 30% trichloroacetic acid (TCA) in methanol. The plates are left in ice for 1 hour. […] The membranes are dried in a microwave oven, then impregnated with scintillation medium by melting of Meltilex® (Pharmacia) under hot air, and lastly counted in cpm in a β-Plate counter® (LKB). […]
The percentage inhibition values are obtained by comparison of the tests with and without inhibitor after deduction of blanks, the IC50 values being measured on the basis of the inhibitions obtained with 9 different concentrations using Enzfitter® or Grafit® software.

As to `COC(=O)[C@H](CCSC)NC(=O)C1CCCc2c(NC[C@@H](N)CS)cccc21` (stereo partly drawn) [Example 1, trifluoroacetate of the methyl ester of N-[5-(2(R)-amino-3-mercapto-propylamino)-1,2,3,4-tetrahydronaphthyl-1(R,S)-carbonyl]-(L)-methionine], the inhibition at 10 µM in assay [1] (10 μM) is over 10%. Besides, in assay [2], the concentration for half-maximal inhibition (IC50) came to 15 nM.

Consider `CSCC[C@H](NC(=O)C1CCCc2c(NC[C@@H](N)CS)cccc21)C(=O)O` (stereo partly drawn) [Example 2, trifluoroacetate of N-[5-(2(R)-amino-3-mercaptopropylamino)-1,2,3,4-tetrahydronaphthyl-1(R,S)-carbonyl]-(L)-methionine], for which the inhibition at 50 µM in assay [1] (50 μM) came to 50%. Further, the half-inhibitory concentration (IC50) in assay [2] amounted to 405 nM.
